Where a name gives a salt, the structure may show the parent alone. Read-outs that look alike come from different tables or passages of the source.
What was measured:
[1] = system: reserpine-induced hypothermia; test: Antidepressive action: reserpine antagonism, inhibition of reserpine-induced hypothermia of the mouse; type: in vivo, male Swiss mice; settings: for ED50: Mus musculus, dose based on the base, read-out: ED 50% (dose which inhibits the reserpine-induced hypothermia of the mouse by 50%); for R.A. (relative activity), reserpine antagonism: amezinium = 1.00, oral
Procedure: Antidepressants effect dose-dependent inhibition of this hypotherma. The test substances are administered orally 60 minutes before the administration of reserpine.
The dose which effects 50% inhibition of the reserpine-induced hypothermia is determined, as the ED 50%, from the linear regression between log dose (mg/kg) and relative reduction in hypothermia (Δ%).

[2] = system: reserpine-induced hypothermia / blood pressure; test: Quotient ED 50% antidepressive action / ED 20% hypertensive action; type: in vivo, mouse / rat; settings: for Q Increase: Table 2, route of hypertensive test not given;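 on Q Increase: larger quotient means more selective hypertensive action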
Source text: This is evident from the fact that the quotient defined above differs wtih respect to the comparative compounds. […] This arises, inter alia, from the fact that the hypertensive ED 20 constitutes the denominator of the quotient. It is possible that the unforeseeable selective direction of action is attributable to the special substitution,in accordance with the invention, at the 4-imino group.

blood pressure = test: Effect on the blood pressure: hypertensive action, pithed rat; type: in vivo, male Sprague-Dawley rats; settings: for ED20: Rattus norvegicus, dose based on the base, read-out: ED 20% hypertensive action (dose which increases the blood pressure of the pithed rat by 20%); for R.A. (relative activity), hypertensive action: amezinium = 1.00
Procedure: The measurement of the blood pressure in the carotid artery was carried out by means of Statham transducers. The substance was administered in the jugular vein (as an aqueous solution, 1 ml/kg) or intraperitoneally (as a tragacanth suspension, 2 ml/kg). The ED 20% is determined as the dose which increases the blood pressure by 20%.

[3] = Table 1, oral administration 60 min before reserpine
[4] = ip, Table 1, i.p. administration
[5] = iv, Table 1, i.v. administration

Row | SMILES | ED50 [1, 3] [mg/kg] | R.A. (relative activity), reserpine antagonism ([1]; Table 1) | Q (quotient ED 50% antidepressive action/ED 20% hypertensive action) ([2]; hypertensive test i.p.) | ED20 (blood pressure; [4]) [mg/kg] | R.A. (relative activity), hypertensive action (blood pressure; Table 1, i.p. administration) | Q (quotient ED 50% antidepressive action/ED 20% hypertensive action) ([2]; hypertensive test i.v.) | ED20 (blood pressure; [5]) [mg/kg] | R.A. (relative activity), hypertensive action (blood pressure; Table 1, i.v. administration) | also measured
1 | CCC(=O)N=c1cnn(-c2ccccc2)c(OC)c1 [Example 50] | 0.18 | 4.07 | 0.06 | 3.16 | 0.12 | – | – | – | –
2 | CC(=O)N=c1ccn(-c2ccccc2)nc1 [Example 1, 4-acetylimino-1,4-dihydro-1-phenylpyridazine hydrochloride] | 0.67 | 1.09 | – | – | – | 2.09 | 0.32 | 0.16 | –
3 | CCCCCCCC(=O)N=c1ccn(-c2ccccc2)nc1 [Example 8, 1,4-dihydro-4-octanoylimino-1-phenylpyridazine hydrochloride] | – | – | – | – | – | – | – | – | ED50 ([1]; Table 2, oral administration): 5.23 mg/kg; R.A. (relative activity), reserpine antagonism ([1]; Table 2): 0.14; Q Increase [2]: 95.09; ED20 (blood pressure; Table 2, route not given): 0.055 mg/kg; R.A. (relative activity), hypertensive action (blood pressure; Table 2): 0.91
4 | CCOc1cc(=NC(C)=O)cnn1-c1ccccc1 [Example 49] | 1.71 | 0.43 | 0.37 | 4.64 | 0.08 | – | – | – | –
5 | O=C(Cc1ccccc1)N=c1ccn(-c2ccccc2)nc1 [Example 9, 1,4-dihydro-1-phenyl-4-[(phenylacetyl)-imino]-pyridazine hydrochloride] | – | – | – | – | – | – | – | – | ED50 ([1]; Table 2, oral administration): 3.98 mg/kg; R.A. (relative activity), reserpine antagonism ([1]; Table 2): 0.18; Q Increase [2]: 63.17; ED20 (blood pressure; Table 2, route not given): 0.063 mg/kg; R.A. (relative activity), hypertensive action (blood pressure; Table 2): 0.79
6 | O=C(N=c1ccn(-c2ccccc2)nc1)c1ccccc1Cl [Example 17] | – | – | – | – | – | – | – | – | ED50 ([1]; Table 2, oral administration): 2.76 mg/kg; R.A. (relative activity), reserpine antagonism ([1]; Table 2): 0.27; Q Increase [2]: 60.00; ED20 (blood pressure; Table 2, route not given): 0.046 mg/kg; R.A. (relative activity), hypertensive action (blood pressure; Table 2): 1.09
7 | COc1cc(=NC(=O)c2ccc(C)cc2)cnn1-c1ccccc1 [Example 78] | 0.73 | 1.00 | 0.07 | 10 | 0.04 | – | – | – | –
8 | O=C(N=c1ccn(-c2ccccc2)nc1)C1CC1 [Example 10, 4-(cyclopropylcarbonyl)-imino-1,4-dihydro-1-phenylpyridazine hydrochloride] | 1.41 | 0.52 | – | – | – | 3.04 | 0.464 | 0.11 | –
9 | COc1cc(N)cn[n+]1-c1ccccc1 [Amezinium, 1-phenyl-4-amino-6-methoxypyridazinium methosulfate, reference compound] | 0.733 | 1.00 | 1.98 | 0.37 | 1.00 | 14.66 | 0.05 | 1.00 | R.A. (relative activity), reserpine antagonism ([1]; Table 2): 1.00; Q Increase [2]: 14.66; factor by which the hypertensive dose (ED 20%) is smaller than the antidepressive effective dose (ED 50%) ([2]; compounds of Table 2): 15; Q (quotient ED 50% antidepressive action/ED 20% hypertensive action) ([2]; hypertensive test i.v., listed as amezinium): 14.7; antidepressive and hypertensive action (in words) ([2]; in vivo): have an antidepressive and hypertensive action; ED20 (blood pressure; Table 2, route not given): 0.05 mg/kg; R.A. (relative activity), hypertensive action (blood pressure; Table 2): 1.00
10 | COc1cc(=NC(=O)c2ccc(Cl)cc2Cl)cnn1-c1ccccc1 [Example 68] | 0.95 | 0.77 | < 0.04 | > 21.5 | < 0.02 | – | – | – | –
11 | CC(C)C(=O)N=c1ccn(-c2ccccc2)nc1 [Example 5, 1,4-dihydro-4-isobutyrylimino-1-phenylpyridazine hydrochloride] | 0.4 | 1.83 | – | – | – | 1.82 | 0.215 | 0.23 | –
12 | CCCNC(=O)N=c1ccn(-c2ccccc2)nc1 [Example 85, 1,4-dihydro-1-phenyl-4-[(propylcarbamyl)-imino]-pyridazine] | 0.28 | 2.62 | – | – | – | 0.28 | 1 | 0.05 | factor by which the quotient of antidepressive action and hypertensive action is smaller than in the case of amezinium ([2]; compounds of Table 1): 52
13 | CCSC(=O)N=c1ccn(-c2ccccc2)nc1 [Example 36] | 2 | 0.37 | – | – | – | 6.33 | 0.316 | 0.16 | –
14 | COc1cc(=NC(C)=O)cnn1-c1ccccc1 [Example 48, 4-acetylimino-1,4-dihydro-6-methoxy-1-phenylpyridazine perchlorate] | 1.1 | 0.67 | 0.16 | 6.81 | 0.05 | – | – | – | –
15 | O=C(N=c1ccn(-c2ccccc2)nc1)c1ccc(Cl)c(Cl)c1 [Example 22] | 3.1 | 0.24 | 0.67 | 4.64 | 0.08 | – | – | – | –
16 | O=C(N=c1ccn(-c2ccccc2)nc1)OCc1ccccc1 [Example 34] | 0.71 | 1.03 | – | – | – | 7.10 | 0.1 | 0.50 | –
17 | COC(=O)[C@H]1[C@H]2C[C@@H]3c4[nH]c5cc(OC)ccc5c4CCN3C[C@H]2C[C@@H](OC(=O)c2cc(OC)c(OC)c(OC)c2)[C@@H]1OC [Reserpine, reference compound] | – | – | – | – | – | – | – | – | reduction of body temperature ([1]; 2.15 mg/kg s.c., 2 hours after administration, ambient 20° to 22° C., average): 3 °C
